Measured values as given in patent publication US6355799B1, “Substituted benzene compounds, process for their preparation, and herbicidal and defoliant compositions containing them” (ISK Americas Incorporated, priority 1997, dated 2002).

What was measured:
Type in all cases: in vivo
[1] = tested on: redroot pigweed (Amaranthus retroflexus, AMARE); experiment: Pre-emerge test, greenhouse herbicide activity screening; details: pre-emerge, rated 14 days after application, 0 = no damage, 100 = complete death
How it was run: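 Visual ratings on a 0-100 scale (0 no damage, 100 all plants dead) were taken at 14 days after treatment. Rates of 15-1000 g ai/ha in acetone, 187 l/ha, were sprayed onto soil one day after planting (pre-emerge) or onto 2-3 leaf plants with 0.25% v/v surfactant (post-emerge).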

[2] = tested on: barnyardgrass (Echinochloa crus-galli, ECHCG); experiment: as above; details: pre-emerge, rated 14 days after application, 0 = no damage, 100 = complete death
How it was run: (§1)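 Compounds in acetone were track-sprayed at 15–1000 g ai/ha: pre-emergence onto soil sown the previous day, then top-watered to incorporate and later bottom-watered; post-emergence onto 2–3 leaf plants with 0.25% v/v surfactant, bottom-watered only. Ratings on a 0–100 phytotoxicity scale were taken at day 14.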

[3] = tested on: common ragweed (Ambrosia artemisizfolia L., AMBEL); experiment: as above; details: pre-emerge, rated 14 days after application, 0 = no damage, 100 = complete death
How it was run: as §1

[4] = tested on: green foxtail (Setaria viridis, SETVI); experiment: as above; details: pre-emerge, rated 14 days after application, 0 = no damage, 100 = complete death
How it was run: as §1

[5] = tested on: ivyleaf morningglory (Ipomoea hederacea, IPOHE); experiment: as above; details: pre-emerge, rated 14 days after application, 0 = no damage, 100 = complete death
How it was run: as §1

[6] = tested on: johnsongrass (Sorghum halepense, SORHA); experiment: as above; details: pre-emerge, rated 14 days after application, 0 = no damage, 100 = complete death
How it was run: as §1

[7] = tested on: lambsquarters (Chenopodium album, CHEAL); experiment: as above; details: pre-emerge, rated 14 days after application, 0 = no damage, 100 = complete death
How it was run: as §1

[8] = tested on: large crabgrass (Digitaria sanguinalis, DIGSA); experiment: as above; details: pre-emerge, rated 14 days after application, 0 = no damage, 100 = complete death
How it was run: as §1

[9] = tested on: sicklepod (Cassia obtusifolia, CASOB); experiment: as above; details: pre-emerge, rated 14 days after application, 0 = no damage, 100 = complete death
How it was run: as §1

[10] = tested on: velvetleaf (Abutilon theophrasti, ABUTH); experiment: as above; details: pre-emerge, rated 14 days after application, 0 = no damage, 100 = complete death
How it was run: as §1

[11] = tested on: field corn (Zea mays L., var. Dekalb 535, CORN); experiment: Pre-emerge test, crop safety; details: pre-emerge, rated 14 days after application, 0 = no damage, 100 = complete death
How it was run: (§2)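 Rating: 0–100 visual injury, 14 DAA. Application: acetone, 187 l/ha, 15–1000 g ai/ha, flat-fan track sprayer with nozzle 40–45 cm above soil or canopy. Post-emerge runs used 0.25% v/v surfactant on 2–3 leaf plants.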

[12] = tested on: upland rice (Oryza sp., var. Tebonnet, RICE); experiment: Pre-emerge test, crop safety; details: pre-emerge, rated 14 days after application, 0 = no damage, 100 = complete death
How it was run: as §2

[13] = tested on: barnyardgrass (Echinochloa crus-galli, ECHCG); experiment: Post-emerge test, greenhouse herbicide activity screening; details: phytotoxicity rating 0-100 (0 no damage, 100 complete death), 14 days after application
How it was run: (§3)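 Applied at 15–1000 g ai/ha from acetone in 187 l/ha spray volume. Post-emergence applications included 0.25% v/v non-ionic surfactant and reached plants sown 8–21 days before. Pre-emergence applications were incorporated by surface watering. Efficacy or crop damage was rated on a 0–100 scale after 14 days.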

[14] = tested on: common ragweed (Ambrosia artemisizfolia L., AMBEL); experiment: as above; details: phytotoxicity rating 0-100 (0 no damage, 100 complete death), 14 days after application
How it was run: as §3

[15] = tested on: green foxtail (Setaria viridis, SETVI); experiment: as above; details: phytotoxicity rating 0-100 (0 no damage, 100 complete death), 14 days after application
How it was run: as §3

[16] = tested on: ivyleaf morningglory (Ipomoea hederacea, IPOHE); experiment: as above; details: phytotoxicity rating 0-100 (0 no damage, 100 complete death), 14 days after application
How it was run: as §3

[17] = tested on: johnsongrass (Sorghum halepense, SORHA); experiment: as above; details: phytotoxicity rating 0-100 (0 no damage, 100 complete death), 14 days after application
How it was run: as §3

[18] = tested on: lambsquarters (Chenopodium album, CHEAL); experiment: as above; details: phytotoxicity rating 0-100 (0 no damage, 100 complete death), 14 days after application
How it was run: as §3

[19] = tested on: large crabgrass (Digitaria sanguinalis, DIGSA); experiment: as above; details: phytotoxicity rating 0-100 (0 no damage, 100 complete death), 14 days after application
How it was run: as §3

[20] = tested on: redroot pigweed (Amaranthus retroflexus, AMARE); experiment: as above; details: phytotoxicity rating 0-100 (0 no damage, 100 complete death), 14 days after application
How it was run: as §3

[21] = tested on: sicklepod (Cassia obtusifolia, CASOB); experiment: as above; details: phytotoxicity rating 0-100 (0 no damage, 100 complete death), 14 days after application
How it was run: as §3

[22] = tested on: velvetleaf (Abutilon theophrasti, ABUTH); experiment: as above; details: phytotoxicity rating 0-100 (0 no damage, 100 complete death), 14 days after application
How it was run: as §3

[23] = tested on: field corn (Zea mays L., var. Dekalb 535, CORN); experiment: Post-emerge test, crop safety; details: phytotoxicity rating 0-100 (0 no damage, 100 complete death), 14 days after application
How it was run: as §2

[24] = tested on: upland rice (Oryza sp., var. Tebonnet, RICE); experiment: Post-emerge test, crop safety; details: phytotoxicity rating 0-100 (0 no damage, 100 complete death), 14 days after application
How it was run: as §2

Structure (SMILES): COc1c(Cl)cc(F)c(-n2c(=O)c(NC(=O)C(F)(F)F)c(C(F)(F)F)n(C)c2=O)c1NC(=O)C(F)(F)F [2-12]
- Pre-emerge Herbicidal Activity AMARE (phytotoxicity rating, scale 0-100) ([1]; 63 g ai/ha): 30
- Pre-emerge Herbicidal Activity AMARE (phytotoxicity rating, scale 0-100) ([1]; 250 g ai/ha): 100
- Pre-emerge Herbicidal Activity ECHCG (phytotoxicity rating, scale 0-100) ([2]; 63 g ai/ha): 0
- Pre-emerge Herbicidal Activity ECHCG (phytotoxicity rating, scale 0-100) ([2]; 250 g ai/ha): 0
- Pre-emerge Herbicidal Activity AMBEL (phytotoxicity rating, scale 0-100) ([3]; 63 g ai/ha): 0
- Pre-emerge Herbicidal Activity AMBEL (phytotoxicity rating, scale 0-100) ([3]; 250 g ai/ha): 0
- Pre-emerge Herbicidal Activity SETVI (phytotoxicity rating, scale 0-100) ([4]; 63 g ai/ha): 0
- Pre-emerge Herbicidal Activity SETVI (phytotoxicity rating, scale 0-100) ([4]; 250 g ai/ha): 0
- Pre-emerge Herbicidal Activity IPOHE (phytotoxicity rating, scale 0-100) ([5]; 63 g ai/ha): 40
- Pre-emerge Herbicidal Activity IPOHE (phytotoxicity rating, scale 0-100) ([5]; 250 g ai/ha): 70
- Pre-emerge Herbicidal Activity SORHA (phytotoxicity rating, scale 0-100) ([6]; 63 g ai/ha): 0
- Pre-emerge Herbicidal Activity SORHA (phytotoxicity rating, scale 0-100) ([6]; 250 g ai/ha): 0
- Pre-emerge Herbicidal Activity CHEAL (phytotoxicity rating, scale 0-100) ([7]; 63 g ai/ha): 0
- Pre-emerge Herbicidal Activity CHEAL (phytotoxicity rating, scale 0-100) ([7]; 250 g ai/ha): 30
- Pre-emerge Herbicidal Activity DIGSA (phytotoxicity rating, scale 0-100) ([8]; 63 g ai/ha): 0
- Pre-emerge Herbicidal Activity DIGSA (phytotoxicity rating, scale 0-100) ([8]; 250 g ai/ha): 0
- Pre-emerge Herbicidal Activity CASOB (phytotoxicity rating, scale 0-100) ([9]; 63 g ai/ha): 30
- Pre-emerge Herbicidal Activity CASOB (phytotoxicity rating, scale 0-100) ([9]; 250 g ai/ha): 40
- Pre-emerge Herbicidal Activity ABUTH (phytotoxicity rating, scale 0-100) ([10]; 63 g ai/ha): 50
- Pre-emerge Herbicidal Activity ABUTH (phytotoxicity rating, scale 0-100) ([10]; 250 g ai/ha): 70
- Pre-emerge crop damage CORN (phytotoxicity rating, scale 0-100) ([11]; 63 g ai/ha): 0
- Pre-emerge crop damage CORN (phytotoxicity rating, scale 0-100) ([11]; 250 g ai/ha): 0
- Pre-emerge crop damage RICE (phytotoxicity rating, scale 0-100) ([12]; 63 g ai/ha): 0
- Pre-emerge crop damage RICE (phytotoxicity rating, scale 0-100) ([12]; 250 g ai/ha): 0
- Post-emerge Herbicidal Activity ECHCG ([13]; 63 g ai/ha): 0
- Post-emerge Herbicidal Activity ECHCG ([13]; 250 g ai/ha): 0
- Post-emerge Herbicidal Activity AMBEL ([14]; 63 g ai/ha): 0
- Post-emerge Herbicidal Activity AMBEL ([14]; 250 g ai/ha): 10
- Post-emerge Herbicidal Activity SETVI ([15]; 63 g ai/ha): 0
- Post-emerge Herbicidal Activity SETVI ([15]; 250 g ai/ha): 0
- Post-emerge Herbicidal Activity IPOHE ([16]; 63 g ai/ha): 0
- Post-emerge Herbicidal Activity IPOHE ([16]; 250 g ai/ha): 50
- Post-emerge Herbicidal Activity SORHA ([17]; 63 g ai/ha): 0
- Post-emerge Herbicidal Activity SORHA ([17]; 250 g ai/ha): 0
- Post-emerge Herbicidal Activity CHEAL ([18]; 63 g ai/ha): 0
- Post-emerge Herbicidal Activity CHEAL ([18]; 250 g ai/ha): 40
- Post-emerge Herbicidal Activity DIGSA ([19]; 63 g ai/ha): 0
- Post-emerge Herbicidal Activity DIGSA ([19]; 250 g ai/ha): 0
- Post-emerge Herbicidal Activity AMARE ([20]; 63 g ai/ha): 0
- Post-emerge Herbicidal Activity AMARE ([20]; 250 g ai/ha): 10
- Post-emerge Herbicidal Activity CASOB ([21]; 63 g ai/ha): 0
- Post-emerge Herbicidal Activity CASOB ([21]; 250 g ai/ha): 0
- Post-emerge Herbicidal Activity ABUTH ([22]; 63 g ai/ha): 20
- Post-emerge Herbicidal Activity ABUTH ([22]; 250 g ai/ha): 65
- Post-emerge Herbicidal Activity CORN (crop damage) ([23]; 63 g ai/ha): 0
- Post-emerge Herbicidal Activity CORN (crop damage) ([23]; 250 g ai/ha): 0
- Post-emerge Herbicidal Activity RICE (crop damage) ([24]; 63 g ai/ha): 0
- Post-emerge Herbicidal Activity RICE (crop damage) ([24]; 250 g ai/ha): 0
